The test system of one data set is male dd-strain mice. Nature of the data set: acute toxicity test. The data set is classed as in vivo. As for the experimental part:
[…]. The Minimum lethal dose (MLD) of the compounds was determined by observing whether or not the mice were alive after 7 days of the administration.

In a further data set the target is T1, Adenosine A₁ Receptor (Cavia porcellus, UniProt P47745).
T1 construct: from tissue; host or cells: guinea pig cerebrum membrane preparation
T1 sequence (P47745 1-326): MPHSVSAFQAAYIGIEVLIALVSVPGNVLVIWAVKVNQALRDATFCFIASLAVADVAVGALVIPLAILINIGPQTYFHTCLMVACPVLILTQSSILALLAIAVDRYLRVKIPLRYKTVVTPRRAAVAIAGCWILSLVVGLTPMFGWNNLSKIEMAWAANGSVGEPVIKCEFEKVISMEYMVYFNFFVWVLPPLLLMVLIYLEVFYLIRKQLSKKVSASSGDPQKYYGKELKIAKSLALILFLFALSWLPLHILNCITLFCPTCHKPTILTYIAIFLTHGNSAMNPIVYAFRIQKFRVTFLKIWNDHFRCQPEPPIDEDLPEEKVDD
Nature of the data set: Adenosine A1 receptor binding (3H-CHA binding). On the set-up: species or system guinea pig. The note with it: for Ratio of Ki Values [A₂/A₁]: A₂ Ki (rat corpus striatum) / A₁ Ki (guinea pig cerebrum); for Ki: calculated from Cheng-Prusoff's equation, ³H-CHA; for Ki / inhibition at 100 µM / inhibition at 10 µM: guinea pig cerebrum; for inhibition at 100 µM: concentration of tested compound 10⁻⁴ M; for inhibition at 100 µM / inhibition at 10 µM: ³H-CHA 1.1 nM; for inhibition at 10 µM: concentration of tested compound 10⁻⁵ M. As for the experimental part:
Cerebrum of a guinea pig was suspended into ice cooled 50 mM tris hydroxymethyl aminomethane hydrochloride (Tris HCl) buffer (pH = 7.7), by using Polytron homogenizer (manufactured by Kinematica Co.). The suspension was centrifuged (50,000 x g, 10 minutes), and the precipitate was resuspended by adding the same volume of 50 mM Tris HCl buffer. The suspension was centrifuged under the same conditions, and the precipitate obtained was suspended once again by adding 10 volumes of 50 mM Tris HCl. The tissue suspension was incubated at 37°C for 30 minutes in the presence of 0.02 units/mg tissue of adenosine deaminase (manufactured by Sigma Co.). The resulting tissue suspension was recentrifuged (50,000 x g, 10 minutes), and 50 mM Tris HCl was added to the precipitate to adjust the concentration of tissue to 10 mg (wet weight)/mℓ.
The mixture was incubated at 25°C for 90 minutes, and the resulting reaction was stopped by rapid vacuum filtration through a glass fiber filter (GF/C manufactured by Whatman Co.) followed by immediately washing three times with 5 mℓ each of ice cold 50 mM Tris HCl buffer. […] Its radioactivity was then determined by a scintillation counter (manufactured by Packard Instrument Co.).
The inhibition rate of the test compounds against the binding of A₁ […] (³H-CHA binding) was calculated from the following equation: [formula]
• 1. […] The inhibition constant (Ki value) shown in the table was calculated from Cheng-Prusoff's equation.

The next data set addresses T2, A₂ receptor (Rattus norvegicus, UniProt P30543).
T2 construct: A precipitate was prepared from rat corpus striatum; from tissue; host or cells: rat corpus striatum membrane preparation
As to the kind of experiment: Adenosine A2 receptor binding (3H-NECA binding). As to conditions: for inhibition at 10 µM / inhibition at 100 µM: read-out: A₂ Receptor Inhibition (%); for Ki: ³H-NECA with CPA, rat corpus striatum, read-out: A₂ Receptor Ki. As for the experimental part: A precipitate was prepared from rat corpus striatum in a similar manner as in 1) above. The precipitate was suspended by adding a 50 mM Tris HCl buffer containing 10 mM magnesium chloride and 0.02 unit/mg (tissue) of adenosine deaminase (manufactured by Sigma Co.) to adjust the concentration of tissue to 5 mg (wet weight)/mℓ.
The mixture was incubated at 25°C within 120 minutes. The resulting mixture was treated in the same manner as in 1) above to determine its radioactivity.
The inhibition rate of the test compound against the binding of A₂ receptor (³H-NECA binding) was calculated from the following equation: [formula]

Another data set concerns Wistar rats. As to the kind of experiment: diuretic effect. The data set is classed as in vivo. As to conditions: 25 mg/kg oral, urine collected for 6 hours; for Increase in K⁺ excretion (%) / Increase in Na⁺excretion (%) / Increase in Urine (%): relative to control; for Na⁺/K⁺: relative value of control (control 1.00). As for the experimental part:
Wistar rats (male: 150 - 300 g) were starved for 18 hours prior to the administration of the test compounds. […] Urine was collected for 6 hours after the administration. Urine volume was measured and the electrolytes (Na+ and K+) in the urine were determined with a flame photome[…], Hitachi Ltd., Japan). All parameters are expressed as relative values of control.

Data set [1] relates to glycerol-induced renal failure model. As to the kind of experiment: renal-protecting effect (glycerol-induced renal failure model). The note with it: male Wistar rats; for suppression of increases of the serum creatinine and of urine-nitrogen: 0.01 - 10 mg/kg i.p., 24 hours after 50% glycerol s.c. (p < 0.05). The data set is classed as in vivo. As for the experimental part: A renal failure is a state wherein the renal function is lowered and the homeostasis of a body fluid can be no more maintained. It is known that an acute renal failure characteristic of uriniferous tubule disorder is caused by subcutaneous or intramuscular injection of glycerol to rats [Can. J. Physiol.
Male Wistar rats were kept deprived or water for 18 hours, and served for the test. A test compound was intraperitoneally administered to the rats (dosage: 1 mℓ/kg) and the rats were anesthetized with ether and 50% glycerol was subcutaneously administered (dosage: 0.8mℓ/100g) to the rats, pinching the dorsal skin. Twenty four hours after the administration of glycerol, the rats were anesthetized with ether and 5 mℓ of blood were collected from the abdominal aorta. The collected blood was allowed to stand for 30 minutes or longer and then centrifuged at 3,000 rpm for 10 minutes, and the amounts of the serum creatinine and urine-nitrogen (UN) contained in the serum were determined by auto analyzer (Olympus AU510) or measured by a creatinine test Wako (Jaffé method) and UN Test Wako (diacetylmonooxime direct method). Both are manufactured by Wako Pure Chemicals Co.
On the other hand, the left kidneys of the blood-sampled rats were removed and placed in formalin-filled vial bottles, and used as samples for the pathological examination.

T2 sequence (P30543 whole entry): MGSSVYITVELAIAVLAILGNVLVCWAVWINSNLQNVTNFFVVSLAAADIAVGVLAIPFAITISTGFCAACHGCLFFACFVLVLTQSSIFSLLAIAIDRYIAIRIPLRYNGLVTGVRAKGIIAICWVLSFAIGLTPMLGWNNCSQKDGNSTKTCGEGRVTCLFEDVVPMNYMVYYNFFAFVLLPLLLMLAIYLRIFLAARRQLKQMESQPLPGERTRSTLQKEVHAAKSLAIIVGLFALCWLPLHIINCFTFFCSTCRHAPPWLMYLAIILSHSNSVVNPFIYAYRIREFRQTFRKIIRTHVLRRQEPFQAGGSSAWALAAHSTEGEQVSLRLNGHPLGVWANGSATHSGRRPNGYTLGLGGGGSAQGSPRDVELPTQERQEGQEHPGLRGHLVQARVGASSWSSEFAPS

In the case of `CCCn1c(=O)c2nc(CC34CC5CC(CC(C5)C3)C4)[nH]c2n(CCC)c1=O` [Compound 15, 8-(Adamantan-1-yl)methyl-1,3-dipropylxanthine], the “Minimum lethal dose (MLD)” value in the data set with male dd-strain mice (mouse, in vivo, 10080 min) is reported as “more than 300 mg/kg”.

Consider `CCCn1c(=O)c2c(nc(C34CC5CC(CC3C5)C4)n2C)n(CCC)c1=O` [Compound 20, 1,3-Dipropyl-7-methyl-8-(noradamantan-3-yl)xanthine], for which, in the data set on male dd-strain mice (300 mg/kg orally administered, male dd-strain mice, observed 7 days after administration), the “Minimum lethal dose (MLD)” value is “more than 300 mg/kg”.

Take `CCn1c(=O)c2[nH]c(C34CC5CC(CC3C5)C4)nc2n(CC)c1=O` [Compound 28, 8-(Noradamantan-3-yl)-1,3-diethylxanthine]: on Adenosine A₁ Receptor, the “Ratio of Ki Values [A₂/A₁]” value turned out to be 132; the Ki (commonly the dissociation constant of the complex between target and ligand, obtained from inhibition or displacement) was 7.1 nM; the inhibition (as a rule, the drop in the measured response relative to a control, in per cent) at 100 µM amounted to 101%; the inhibition at 10 µM was 100%. On A₂ receptor, the inhibition at 10 µM amounted to 61%, the inhibition at 100 µM was 78% and the Ki was 940 nM.

On to `CCCCn1c(=O)c2[nH]c(C34CC5CC(CC3C5)C4)nc2n(CCCC)c1=O` [Compound 29, 8-(Noradamantan-3-yl)-1,3-dibutylxanthine], for which, at Adenosine A₁ Receptor, the “Ratio of Ki Values [A₂/A₁]” value worked out at 107, the Ki was 9.1 nM, the inhibition at 100 µM was found to be 100% and the inhibition at 10 µM is 100%. Further, at A₂ receptor, the inhibition at 10 µM turned out to be 72%, the inhibition at 100 µM was 78% and the Ki was 970 nM. Also, in the data set on Wistar rats, the “Increase in K⁺ excretion (%)” value stood at 65%, the “Increase in Na⁺excretion (%)” value stood at 137%, the “Increase in Urine (%)” value was determined as 123% and the “Na⁺/K⁺” value turned out to be 1.43.

With `CC(C)Cn1c(=O)n(C)c(=O)c2[nH]c(C34CC5CC(CC3C5)C4)nc21` [Compound 30, 8-(Noradamantan-3-yl)-3-isobutyl-1-methylxanthine], in the data set on Wistar rats, the “Increase in K⁺ excretion (%)” value turned out to be 50%, the “Increase in Na⁺excretion (%)” value was 126%, the “Increase in Urine (%)” value amounted to 112% and the “Na⁺/K⁺” value is 1.50.

On to `NS(=O)(=O)c1cc(C(=O)O)c(NCc2ccco2)cc1Cl` [Furosemide, reference compound], for which, in data set [1] (i.p., 24 hours after 50% glycerol s.c.), the “effect on serum creatinine” value was “showed a tendency to increase the serum creatinine”. In the data set on Wistar rats, the “Increase in Urine (%)” value was 75% and the “Na⁺/K⁺” value was 1.07.

Regarding `CCCn1c(=O)c2[nH]c(-c3ccc(S(=O)(=O)N(C)CCN(C)C)cc3)nc2n(CCC)c1=O` [PD 115199, reference compound], the “suppression of increases of the serum creatinine and of urine-nitrogen” value in data set [1] was “totally ineffective”. Also, on Adenosine A₁ Receptor, the “Ratio of Ki Values [A₂/A₁]” value was determined as 0.14, the Ki is 190 nM, the inhibition at 100 µM came out at 100% and the inhibition at 10 µM was found to be 97%. For the same molecule, on A₂ receptor, the inhibition at 10 µM worked out at 94%, the inhibition at 100 µM was found to be 98% and the inhibition constant (Ki) was 26 nM.

In the case of `CCCn1c(=O)c2[nH]c(-c3ccc(OCC(=O)NCCN)cc3)nc2n(CCC)c1=O` [XAC, reference compound], in data set [1], the “suppression of increases of the serum creatinine and of urine-nitrogen” value is reported as “weak effect”.

Values taken from patent EP0415456A2, “Xanthine compounds” (priority 1989, dated 1991).
